Data published in patent US20170334919A1, “2-((4-AMINO-3-(3-FLUORO-5-HYDROXYPHENYL)-1H-PYRAZOLO[3,4-D]PYRIMIDIN-1 -YL)METHYL)-3-(2-(TRIFLUORO-MET HYL)BENZYL)QUINAZOLIN-4(3H)-ONE DERIVATIVES AND THEIR USE AS PHOSPHOINOSITIDE 3-KINASE INHIBITORS” (RESPIVERT LTD., priority 2013, published 2017).

Assays:
[1] = test system: neutrophils from COPD patients; assay: CXCL8 release from neutrophils obtained from COPD patients; type: cell-based; conditions: Homo sapiens, Neutrophil; read-out: REC50, TNFα-induced CXCL8 in neutrophils from COPD patients
Description: The effects of treatment on CXCL8 release from neutrophils obtained from COPD patients were evaluated by an ELISA assay. All patients were recruited by Quintiles Limited (London, UK), and blood samples were delivered to Respivert Ltd. This study was approved by the local Ethics Committee, and all subjects gave written informed consent. Whole blood (30 mL) was mixed gently with ACD (5 mL; comprising: 7.36 g citric acid, 14.71 g sodium citrate, 9.91 g dextrose in 250 ml sterile, double distilled water) and 6% dextran (15 mL; diluted in 0.9% NaCl) to remove the red blood cells. The tubes were incubated at RT for 45 min, and the supernatant (white cell rich fraction) was then collected, leaving the red blood cells.
This fraction was centrifuged (10 min at 1200 rpm, 4° C.) with low braking. The supernatant was aspirated and the pellet was re-suspended in ice-cold, sterile double distilled H2O (10 mL), and 0.6 M KCl (4 mL) was added 30 seconds later. […]
Neutrophils were pre-incubated with test compounds or with DMSO vehicle for 1 hr and then stimulated with TNFα (10 ng/mL). Cell free supernatant was collected at 3 hr after TNFα stimulation, and CXCL8 was measured by ELISA using DuoSet ELISA development kit (R&D systems, Abingdon, UK). The IC50 values reported were determined from concentration-inhibition curves using XL-Fit (IDBS, Guildford, UK).

THP1 cells = assay: Chemotaxis to MCP1; type: cell-based; conditions: Homo sapiens, THP-1; read-out: REC50, THP1 cell chemotaxis to MCP1
Description: As a means of assessing PI3K γ dependent cell function, THP1 cell chemotaxis to MCP-1 was evaluated using a 48 well-chemotaxis chamber. THP1 cells from a human leukemic monocyte lymphoma cell line, (purchased from ATCC Manassas, Va.) were maintained in RPMI 1640 (Invitrogen Ltd., Paisley, UK) with 10% FCS at 37° C. Cells were re-suspended in 0.5% BSA/RPM11640 (2×10^6 cells/mL) and incubated for 10 min at 37° C., 5% CO2. Cell suspension aliquots (500 μL) were then treated either with compounds in neat DMSO or with DMSO as vehicle (2.5 μL) for 1hr (37° C., 5% CO2).
MCP1 (50 nM) was prepared in 0.5% BSA/RPM11640. MCP1 solution (50 μL) was added to each well in the bottom plate of a 48-well chemotaxis chamber (AP48, NeuroProbe Inc., Gaithersburg, Md.). A polycarbonate membrane (8 μm) was mounted on the bottom chamber, and then the top plate was mounted on the bottom chamber and filter membrane. […]
A solution of MTT (50 μL) in 10% FCS phenol red-free RPM11640 was added to each well, and the plate was incubated for 2 hr (37° C., 5% CO2). Neat DMSO (100 μL) was added to each well to extract formazan formed from MTT and the plates were shaken lightly for 1 hr prior to measuring the absorbance at 595 nm (Varioskan® Flash, Thermo-Fisher Scientific). […] Relative EC50 values were determined from concentration-inhibition curves using XL-Fit (idbs, Guildford, UK).

EC50 [1]: 2.2 nM | EC50 (THP1 cells): 33.9 nM
Structure (SMILES): COCCOCCOCC#Cc1cccc2nc(Cn3nc(-c4cc(O)cc(F)c4)c4c(N)ncnc43)n(Cc3ccccc3C(F)(F)F)c(=O)c12 [Compound (I), 2-((4-Amino-3-(3-fluoro-5-hydroxyphenyl)-1H-pyrazolo[3,4-d]pyrimidin-1-yl)methyl)-5-(3-(2-(2-methoxyethoxy)ethoxy)prop-1-yn-1-yl)-3-(2-(trifluoromethyl)benzyl)quinazolin-4(3H)-one]
